Assays:
[1] = molecular target: T1, 5-LO (5-lipoxygenase) (Homo sapiens, UniProt P09917); experiment: 5-LO enzyme assay using a FOX reagent; type: biochemical; settings: read-out: 5-LO (% inhibition at 1 μM); test sample 1 μM; lysates from 5-LO expressing insect cells; table does not say FOX or 234 nm readout
T1 construct: made in house; host or cells: insect cells (lysate, 7 μg)
T1 sequence (P09917 1-674): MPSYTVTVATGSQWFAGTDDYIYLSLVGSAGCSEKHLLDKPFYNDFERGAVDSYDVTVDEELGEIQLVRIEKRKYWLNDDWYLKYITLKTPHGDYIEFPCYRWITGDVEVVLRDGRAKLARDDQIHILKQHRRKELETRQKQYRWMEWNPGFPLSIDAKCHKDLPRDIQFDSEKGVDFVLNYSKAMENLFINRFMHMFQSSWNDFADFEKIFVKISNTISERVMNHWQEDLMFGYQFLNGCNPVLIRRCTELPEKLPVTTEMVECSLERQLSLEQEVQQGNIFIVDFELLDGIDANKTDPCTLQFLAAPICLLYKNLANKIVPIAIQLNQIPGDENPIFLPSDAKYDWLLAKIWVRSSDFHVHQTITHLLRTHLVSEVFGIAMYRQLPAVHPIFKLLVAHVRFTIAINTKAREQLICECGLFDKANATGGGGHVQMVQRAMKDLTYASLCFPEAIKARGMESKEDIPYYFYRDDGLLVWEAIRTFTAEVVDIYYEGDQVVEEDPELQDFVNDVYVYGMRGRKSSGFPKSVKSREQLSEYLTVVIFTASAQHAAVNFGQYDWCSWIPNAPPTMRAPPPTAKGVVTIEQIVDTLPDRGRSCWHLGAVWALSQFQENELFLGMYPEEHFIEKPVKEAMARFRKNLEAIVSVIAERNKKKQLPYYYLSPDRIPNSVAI
Procedure: Each test sample was added to lysates (7 μg) obtained from 5-LO expressing insect cells at a final concentration of 1 μM and reacted at room temperature for 3 min. Arachidonic acid as an enzyme substrate (40 μM) was added thereto and further reacted at room temperature for 4 min. Then, a FOX reagent (sulfuric acid 25 mM, xylenol orange 100 μM, FeSO4 100 μM; methanol: water=9:1) 100 μl was added thereto, and the absorbance of the reaction mixture was measured at 575 nm after 5 min.

[2] = system: arachidonic acid-induced ear inflammation (mouse ear edema model); experiment: Mouse ear edema model (arachidonic acid-induced; ear thickness and MPO activity); type: in vivo; settings: ICR mouse, oral, 1 hr before arachidonic acid treatment, versus arachidonic acid-only control
Procedure: The inside of the right ear of ICR mouse (6 week old) was treated with 2 mg of arachidonic acid dissolved in 20 μl of acetone for 1 hr to induce an inflammation.
After 1 hr, the difference between the right ear treated with arachidonic acid and the nontreated left ear was measured with a microgauge. Further, to measure the amount of neutrophil penetrated into a tissue as a primary marker for inflammation induction, the myeloperoxidase (MPO) activity was measured. In particular, the tissue obtained from the arachidonic acid-treated right ear was homogenized in 50 mM phosphate buffer solution (pH 6.0) supplemented with 0.5% hexadecyltrimethylammonium bromide (HTAB), subjected to centrifugation, and then, the MPO activity of the supernatant was measured.
To measure in vivo activity of each test compound, each compound was dissolved in 0.5% methylcellulose (10 mL/kg) and orally administered to the mice 1 hr before the arachidonic acid treatment. After the arachidonic acid was treated for 1 hr, the ear thickness and MPO activity were measured, and in vivo activity of the test compound was estimated by comparing them with those of a control which was treated with arachidonic acid only without the test compoud.

| SMILES | inhibition at 1 µM [1] [%] | Animal model (% inhibition) Thickness (T) % ([2]; ear thickness) [%] | Animal model (% inhibition) MPO % ([2]; myeloperoxidase activity of ear tissue) [%] |
| --- | --- | --- | --- |
| CCCC1(C)C=Cc2cc(NCc3ccccc3)ccc2O1 (stereo not shown) [1-81] | 61 | – | – |
| CC(c1cc2ccccc2s1)N(O)C(N)=O (stereo not shown) [Zileuton, reference compound] | 85 | 67 | 38 |

Continued, in another order:

| inhibition at 1 µM [1] [%] | SMILES | Animal model (% inhibition) Thickness (T) % ([2]; ear thickness) [%] | Animal model (% inhibition) MPO % ([2]; myeloperoxidase activity of ear tissue) [%] |
| --- | --- | --- | --- |
| 84 | COc1ccc(CNc2ccc3c(c2)C=CC(C)(CCc2ccccc2)O3)cc1 (stereo not shown) [1-124] | – | – |
| 72 | COc1ccc(CCC2(C)C=Cc3cc(NCc4ccccc4)ccc3O2)cc1 (stereo not shown) [1-161] | – | – |
| 51 | COc1ccc(CNc2cc3c(cc2C)OC(C)(CCc2ccccc2)C=C3)cc1 (stereo not shown) [1-324] | – | – |

— US7368575B2, “6-alkylamino-2,2′-disubstituted-7,8-disubstituted-2H-1-benzopyran derivatives as 5-lipoxygenase inhibitor” (Korea Research Institute of Chemical Technology, priority 2004, dated 2008)
